# Source: US6552028B2, “2,4-substituted pyrrolidine derivatives-CCR-3 receptor antagonists” (Syntex (U.S.A.) LLC, priority 2000, dated 2003)
structure (smiles),measurement,value
COc1ccc(-c2cnc(SCC(=O)NCC[C@@H]3C[C@@H](Cc4ccc(Cl)c(Cl)c4)CN3)nc2)cc1OC.Cl,melting point,100.5 to 102.1 °C
